Data reported in patent US8685942B2, “Sophorolipid analog compositions” (priority 2010, dated 2014).
≈ marks a conversion by molar mass, not a printed value. Where two headings read alike, the source gives them in different places.

Tests used:
[1] = test system: A. alternate; assay: Antifungal MIC, 96 well microplate, spore suspension; assay type: cell-based; details: 168 h
Procedure: (§1) Sophorolipid samples were dissolved in 5% ethanol solution to a final concentration of 5 mg/mL and used as a stock solution. The stock solution (100 μl) was added into a 96 well microplate and serially diluted from 2.5 mg/ml to 0.0024 mg/ml using culture medium. After serial dilution, 80 μl of fresh culture medium and 20 μl of spore suspension were added to each well and the plates were incubated for 7 days. The minimum inhibitory concentration (MIC) was determined to measure antifungal activity of sophorolipid-derived compounds. MIC values for antifungal activity were determined by absence of visible growth in the micro wells containing sophorolipid after 7 days of incubation.
as §1, §1

[2] = test system: A. solani; assay: as above; assay type: cell-based
Procedure: as §1, §1, §1

[3] = test system: Alternariatomatophilia; assay: as above; assay type: cell-based
Procedure: as §1, §1, §1

[4] = test system: Botrytis cinerea; assay: as above; assay type: cell-based
Procedure: as §1, §1, §1

[5] = test system: pathogens; assay: Antifungal MIC screen, summary over the pathogen panel; assay type: cell-based; details: of the eight pathogens of Tables 2-4
Procedure: as §1, with “The hydrogenated lactonic sophorolipids have antifungal activity, which were confirmed by experiment and observations. Sophorolipid” for “Sophorolipid”, “incubation. Natural and lactonic SLs were active against four pathogens, whereas hydrogenated lactonic and acidic SLs active against three and two pathogens respectively.” for “incubation.”
as §1, with “The acidic sophorolipid esters have antifungal activity, which were confirmed by experiment and observations. Sophorolipid” for “Sophorolipid”
as §1, with “The acidic sophorolipid amide derivatives have antifungal activity, which were confirmed by experiment and observations. Sophorolipid” for “Sophorolipid”

[6] = test system: Eserichia coli; details: cited from earlier work
[7] = test system: Moraxella; details: cited from earlier work
[8] = test system: Ralstoniaeutropha; details: cited from earlier work
[9] = test system: Salmonella choleraesuis; details: cited from earlier work
[10] = test system: Phytophthoracapsici; assay: Antifungal MIC, 96 well microplate, spore suspension; assay type: cell-based; details: absence of visible growth after 7 days, diluted from 2.5 to 0.0024 mg/ml
Procedure: as §1, §1, §1

[11] = test system: Rhodoccocuserythropolis; details: cited from earlier work
[12] = test system: Fusarimoxysporium; assay: Antifungal MIC, 96 well microplate, spore suspension; assay type: cell-based; details: absence of visible growth after 7 days, diluted from 2.5 to 0.0024 mg/ml
Procedure: as §1, §1, §1

[13] = test system: vaginal cell; details: cited from earlier work
[14] = test system: Phytophthorainfestans; assay: Antifungal MIC, 96 well microplate, spore suspension; assay type: cell-based; details: absence of visible growth after 7 days, diluted from 2.5 to 0.0024 mg/ml
Procedure: as §1, §1, §1

[15] = Alternariatomatophilia, absence of visible growth after 7 days, diluted from 2.5 to 0.0024 mg/ml
[16] = A. solani, absence of visible growth after 7 days, diluted from 2.5 to 0.0024 mg/ml

Compound	number of pathogens active against [5]	MIC100 [6] [mg/mL]	MIC100 [7] [mg/mL]	MIC100 [8] [mg/mL]	MIC100 [9] [mg/mL]	MIC [10] [mg/mL]	MIC100 [11] [mg/mL]	other results
CC(CCCCCC/C=C\CCCCCCCC(=O)NCC[N+](C)(C)C)OC1OC(CO)C(O)C(O)C1OC1OC(CO)C(O)C(O)C1O (centres unmarked) [SL-AM-4, (Z)-2-(17-((4,5-dihydroxy-6-(hydroxymethyl)-3-((3,4,5-trihydroxy-6 (hydroxyl methyl)tetrahydro-2H-pyran-2-yl)oxy)tetrahydro-2H-pyran-2-yl)oxy)octadec-9-enamido)-N,N,N-trimethylethanaminium iodide]	four	–	–	–	–	–	–	MIC ([1]; A. alternate, absence of visible growth after 7 days, diluted from 2.5 to 0.0024 mg/ml, read-out: MIC): 1250 µg/mL; MIC ([2]; Alternaria solani, 168 h, A. solani, absence of visible growth after 7 days, diluted from 2.5 to 0.0024 mg/ml, read-out: MIC): 0.6 mg/mL; MIC ([3]; 168 h, Alternariatomatophilia, absence of visible growth after 7 days, diluted from 2.5 to 0.0024 mg/ml, read-out: MIC): 150 µg/mL; MIC ([4]; 168 h, absence of visible growth after 7 days, diluted from 2.5 to 0.0024 mg/ml, read-out: MIC): 600 µg/mL
CCCCCCOC(=O)CCCCCCC/C=C\CCCCCCC(C)OC1OC(CO)C(O)C(O)C1OC1OC(CO)C(O)C(O)C1O (centres unmarked) [SL-E-9]	–	1.67 (≈ 2360 µM)	1.67 (≈ 2360 µM)	5 (≈ 7070 µM)	5 (≈ 7070 µM)	–	–	–
CCOC(=O)CCCCCCC/C=C\CCCCCCC(C)OC1OC(COC(C)=O)C(O)C(O)C1OC1OC(COC(C)=O)C(O)C(O)C1O (centres unmarked) [SL-E-5]	one	5 (≈ 6800 µM)	0.0617 (≈ 84 µM)	5 (≈ 6800 µM)	5 (≈ 6800 µM)	0.6 (≈ 816 µM)	5 (≈ 6800 µM)	–
CC(CCCCCC/C=C\CCCCCCCC(=O)NCCO)OC1OC(CO)C(O)C(O)C1OC1OC(CO)C(O)C(O)C1O (centres unmarked) [SL-AM-1]	–	–	–	–	–	–	–	MIC [3, 15]: 2500 µg/mL (≈ 3750 µM); MIC ([4]; absence of visible growth after 7 days, diluted from 2.5 to 0.0024 mg/ml): 2500 µg/mL (≈ 3750 µM)
CCCCOC(=O)CCCCCCC/C=C\CCCCCCC(C)OC1OC(COC(C)=O)C(O)C(O)C1OC1OC(COC(C)=O)C(O)C(O)C1O (centres unmarked) [SL-E-8]	one	–	–	–	–	–	–	MIC [2, 16]: 1.25 mg/mL (≈ 1640 µM)
CC(CCCCCC/C=C\CCCCCCCC(=O)NCCN(C)C)OC1OC(CO)C(O)C(O)C1OC1OC(CO)C(O)C(O)C1O (centres unmarked) [SL-AM-3, (Z)-17-((4,5-dihydroxy-6-(hydroxymethyl)-3-((3,4,5-trihydroxy-6-(hydroxymethyl)tetrahydro-2H-pyran-2-yl)oxy)tetrahydro-2H-pyran-2-yl)oxy)-N-(2-(dimethylamino)ethyl)-octadec-9-enamide]	four	–	–	–	–	–	–	MIC [1]: 1250 µg/mL (≈ 1800 µM); MIC ([2]; Alternaria solani, 168 h): 0.15 mg/mL (≈ 216 µM); MIC ([3]; 168 h): 300 µg/mL (≈ 433 µM); MIC ([4]; 168 h): 600 µg/mL (≈ 866 µM)
COC(=O)CCCCCCC/C=C\CCCCCCC(C)OC1OC(CO)C(O)C(O)C1OC1OC(CO)C(O)C(O)C1O (centres unmarked) [SL-E-1, sophorolipid methyl ester]	three	1.67 (≈ 2620 µM)	0.0617 (≈ 96.9 µM)	5 (≈ 7850 µM)	1.67 (≈ 2620 µM)	1.25 (≈ 1960 µM)	5 (≈ 7850 µM)	MIC [2, 16]: 2.5 mg/mL (≈ 3930 µM); MIC [12]: 2.5 mg/mL (≈ 3930 µM)
CC(CCCCCC/C=C\CCCCCCCC(=O)O)OC1OC(CO)C(O)C(O)C1OC1OC(CO)C(O)C(O)C1O (centres unmarked) [SL-A-4]	–	5 (≈ 8030 µM)	5 (≈ 8030 µM)	5 (≈ 8030 µM)	5 (≈ 8030 µM)	–	0.56 (≈ 899 µM)	–
CCOC(=O)CCCCCCC/C=C\CCCCCCC(C)OC1OC(CO)C(O)C(O)C1OC1OC(COC(C)=O)C(O)C(O)C1O (centres unmarked) [SL-E-4]	one	5 (≈ 7220 µM)	0.0205 (≈ 29.6 µM)	5 (≈ 7220 µM)	5 (≈ 7220 µM)	0.6 (≈ 866 µM)	0.00686 (≈ 9.9 µM)	–
CCCCOC(=O)CCCCCCC/C=C\CCCCCCC(C)OC1OC(CO)C(O)C(O)C1OC1OC(COC(C)=O)C(O)C(O)C1O (centres unmarked) [SL-E-6]	one	–	–	–	–	0.6 (≈ 832 µM)	–	–
CCOC(=O)CCCCCCC/C=C\CCCCCCC(C)O[C@@H]1O[C@H](COC(C)=O)[C@@H](O)[C@H](O)[C@H]1O[C@@H]1O[C@H](COC(C)=O)[C@@H](O)[C@H](O)[C@H]1O (some centres unmarked) [sophorolipid diacetate ethyl ester]	–	–	–	–	–	–	–	vaginal cell toxicity [13]: induces sufficient vaginal cell toxicity to raise concerns
CCCCOC(=O)CCCCCCC/C=C\CCCCCCC(C)OC1OC(CO)C(O)C(O)C1OC1OC(CO)C(O)C(O)C1O (centres unmarked) [SL-E-3]	three	–	–	–	–	–	–	MIC [2, 16]: 1.25 mg/mL (≈ 1840 µM); MIC [3, 15]: 150 µg/mL (≈ 221 µM); MIC [14]: 1.25 mg/mL (≈ 1840 µM)
